Data: PubChem BioAssay (NCI)
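How tested: cells in 96-well plates exposed to compound for 48 hours at five concentrations. TGI is the concentration that stops growth completely.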

Tests used:
Assay in all cases: NCI anticancer screen, dose series, 48 h
786-0 renal = tested on: 786-0 renal
A498 renal = tested on: A498 renal
A549 NSCLC = tested on: A549 NSCLC
ACHN renal = tested on: ACHN renal
BT-549 breast = tested on: BT-549 breast
CAKI-1 renal = tested on: CAKI-1 renal
CCRF-CEM leukemia = tested on: CCRF-CEM leukemia
COLO 205 colon = tested on: COLO 205 colon
DU-145 prostate = tested on: DU-145 prostate
EKVX NSCLC = tested on: EKVX NSCLC
HCC-2998 colon = tested on: HCC-2998 colon
HCT-116 colon = tested on: HCT-116 colon
HCT-15 colon = tested on: HCT-15 colon
HL-60(TB) leukemia = tested on: HL-60(TB) leukemia
HOP-62 NSCLC = tested on: HOP-62 NSCLC
HOP-92 NSCLC = tested on: HOP-92 NSCLC
HS 578T breast = tested on: HS 578T breast
HT29 colon = tested on: HT29 colon
IGROV1 ovarian = tested on: IGROV1 ovarian
K-562 leukemia = tested on: K-562 leukemia
KM12 colon = tested on: KM12 colon
LOX IMVI melanoma = tested on: LOX IMVI melanoma
M14 melanoma = tested on: M14 melanoma
MALME-3M melanoma = tested on: MALME-3M melanoma
MCF7 breast = tested on: MCF7 breast
MDA-MB-231 breast = tested on: MDA-MB-231 breast
MDA-MB-435 = tested on: MDA-MB-435
MDA-N = tested on: MDA-N
MOLT-4 leukemia = tested on: MOLT-4 leukemia
NCI-H226 lung = tested on: NCI-H226 lung
NCI-H23 lung = tested on: NCI-H23 lung
NCI-H460 lung = tested on: NCI-H460 lung
NCI-H522 lung = tested on: NCI-H522 lung
NCI/ADR-RES ovarian = tested on: NCI/ADR-RES ovarian
OVCAR-3 ovarian = tested on: OVCAR-3 ovarian
OVCAR-4 ovarian = tested on: OVCAR-4 ovarian
OVCAR-5 ovarian = tested on: OVCAR-5 ovarian
OVCAR-8 ovarian = tested on: OVCAR-8 ovarian
PC-3 prostate = tested on: PC-3 prostate
RXF 393 renal = tested on: RXF 393 renal
SF-268 CNS = tested on: SF-268 CNS
SF-295 CNS = tested on: SF-295 CNS
SF-539 CNS = tested on: SF-539 CNS
SK-MEL-28 melanoma = tested on: SK-MEL-28 melanoma
SK-MEL-5 melanoma = tested on: SK-MEL-5 melanoma
SK-OV-3 ovarian = tested on: SK-OV-3 ovarian
SN12C renal = tested on: SN12C renal
SNB-19 CNS = tested on: SNB-19 CNS
SR leukemia = tested on: SR leukemia
SW-620 colon = tested on: SW-620 colon
T-47D breast = tested on: T-47D breast
TK-10 renal = tested on: TK-10 renal
U251 CNS = tested on: U251 CNS
UACC-257 melanoma = tested on: UACC-257 melanoma
UACC-62 melanoma = tested on: UACC-62 melanoma
UO-31 renal = tested on: UO-31 renal
RPMI-8226 leukemia = tested on: RPMI-8226 leukemia
SK-MEL-2 melanoma = tested on: SK-MEL-2 melanoma
SNB-75 CNS = tested on: SNB-75 CNS

Structure (SMILES): COc1ccc2nc3c([N+](=O)[O-])ccc4c3c(c2c1)NCCN4C
- TGI (786-0 renal): 3.37 µM
- TGI (A498 renal): 3.85 µM
- TGI (A549 NSCLC): 2.57 µM
- TGI (ACHN renal): 5.92 µM
- TGI (BT-549 breast): 11.4 µM
- TGI (CAKI-1 renal): 9.13 µM
- TGI (CCRF-CEM leukemia): > 100 µM
- TGI (COLO 205 colon): 2.54 µM
- TGI (DU-145 prostate): 6.92 µM
- TGI (EKVX NSCLC): 6.61 µM
- TGI (HCC-2998 colon): 4.63 µM
- TGI (HCT-116 colon): 2.88 µM
- TGI (HCT-15 colon): 2.96 µM
- TGI (HL-60(TB) leukemia): > 100 µM
- TGI (HOP-62 NSCLC): 3.16 µM
- TGI (HOP-92 NSCLC): 6.44 µM
- TGI (HS 578T breast): 5.21 µM
- TGI (HT29 colon): 12.4 µM
- TGI (IGROV1 ovarian): 4.52 µM
- TGI (K-562 leukemia): > 100 µM
- TGI (KM12 colon): 23.2 µM
- TGI (LOX IMVI melanoma): 4.71 µM
- TGI (M14 melanoma): 2.8 µM
- TGI (MALME-3M melanoma): 2.6 µM
- TGI (MCF7 breast): 8.75 µM
- TGI (MDA-MB-231 breast): 3.01 µM
- TGI (MDA-MB-435): 2.4 µM
- TGI (MDA-N): 2.21 µM
- TGI (MOLT-4 leukemia): 27 µM
- TGI (NCI-H226 lung): 3.59 µM
- TGI (NCI-H23 lung): 6.39 µM
- TGI (NCI-H460 lung): 1.48 µM
- TGI (NCI-H522 lung): 3.31 µM
- TGI (NCI/ADR-RES ovarian): 7.73 µM
- TGI (OVCAR-3 ovarian): 5.62 µM
- TGI (OVCAR-4 ovarian): 3.57 µM
- TGI (OVCAR-5 ovarian): 23 µM
- TGI (OVCAR-8 ovarian): 14.9 µM
- TGI (PC-3 prostate): 4.54 µM
- TGI (RXF 393 renal): 0.878 µM
- TGI (SF-268 CNS): 7.63 µM
- TGI (SF-295 CNS): 7.58 µM
- TGI (SF-539 CNS): 2.62 µM
- TGI (SK-MEL-28 melanoma): 6.5 µM
- TGI (SK-MEL-5 melanoma): 2.86 µM
- TGI (SK-OV-3 ovarian): 9.23 µM
- TGI (SN12C renal): 9.29 µM
- TGI (SNB-19 CNS): 8.77 µM
- TGI (SR leukemia): > 100 µM
- TGI (SW-620 colon): 4.76 µM
- TGI (T-47D breast): 7.73 µM
- TGI (TK-10 renal): 51.9 µM
- TGI (U251 CNS): 13.4 µM
- TGI (UACC-257 melanoma): 10.1 µM
- TGI (UACC-62 melanoma): 2.88 µM
- TGI (UO-31 renal): 2.82 µM

Structure (SMILES): O=C1/C(=C/c2cccs2)N=C(c2ccccc2)N1C1Nc2cc3c(cc2S1)NC(N1C(=O)/C(=C/c2cccs2)N=C1c1ccccc1)S3 (stereo not drawn)
- TGI (786-0 renal): 43.1 µM
- TGI (A498 renal): > 100 µM
- TGI (A549 NSCLC): > 100 µM
- TGI (ACHN renal): > 100 µM
- TGI (BT-549 breast): 35.1 µM
- TGI (CAKI-1 renal): > 100 µM
- TGI (DU-145 prostate): > 100 µM
- TGI (EKVX NSCLC): 43.6 µM
- TGI (HCC-2998 colon): 43.3 µM
- TGI (HCT-116 colon): 56 µM
- TGI (HCT-15 colon): 34.7 µM
- TGI (HL-60(TB) leukemia): 39.6 µM
- TGI (HOP-62 NSCLC): > 100 µM
- TGI (HOP-92 NSCLC): > 100 µM
- TGI (HS 578T breast): 61.5 µM
- TGI (HT29 colon): > 100 µM
- TGI (IGROV1 ovarian): > 100 µM
- TGI (K-562 leukemia): > 100 µM
- TGI (KM12 colon): > 100 µM
- TGI (LOX IMVI melanoma): 33.7 µM
- TGI (M14 melanoma): 37.1 µM
- TGI (MCF7 breast): > 100 µM
- TGI (MDA-MB-231 breast): > 100 µM
- TGI (MDA-MB-435): 42.6 µM
- TGI (MDA-N): 41 µM
- TGI (MOLT-4 leukemia): 59.6 µM
- TGI (NCI-H226 lung): 48.3 µM
- TGI (NCI-H23 lung): 43.6 µM
- TGI (NCI-H460 lung): > 100 µM
- TGI (NCI-H522 lung): 31.4 µM
- TGI (NCI/ADR-RES ovarian): 33.6 µM
- TGI (OVCAR-3 ovarian): > 100 µM
- TGI (OVCAR-4 ovarian): 96.9 µM
- TGI (OVCAR-5 ovarian): 75 µM
- TGI (OVCAR-8 ovarian): 47.2 µM
- TGI (PC-3 prostate): > 100 µM
- TGI (RPMI-8226 leukemia): 51.7 µM
- TGI (RXF 393 renal): 78.8 µM
- TGI (SF-268 CNS): 47.5 µM
- TGI (SF-295 CNS): > 100 µM
- TGI (SF-539 CNS): 31.3 µM
- TGI (SK-MEL-2 melanoma): 36.9 µM
- TGI (SK-MEL-28 melanoma): > 100 µM
- TGI (SK-MEL-5 melanoma): 37.4 µM
- TGI (SNB-75 CNS): 83.2 µM
- TGI (SR leukemia): 31 µM
- TGI (SW-620 colon): > 100 µM
- TGI (T-47D breast): > 100 µM
- TGI (TK-10 renal): > 100 µM
- TGI (U251 CNS): 32.7 µM
- TGI (UACC-257 melanoma): > 100 µM
- TGI (UO-31 renal): > 100 µM
